Tests used:
[1] = system: A549 cells; assay: Inhibition of cancer cell growth, MTT assay, A549; format: cell-based
In short: (§1)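 IC50 derived from percent growth inhibition versus concentration, tested in triplicate. Growth inhibition came from MTT read at 570 nm after 72 h drug exposure, relative to viable cells at dosing. Cells (about 4000/well, RPMI 1640 + 10% FBS) adhered 24 h before treatment; final DMSO 1%.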

[2] = biological target: BRAF V600E (Homo sapiens (Human), UniProt P15056, V600E); assay: Z′-LYTE kinase inhibition assay (Invitrogen), BRAF V600E; format: biochemical; settings: Z′-LYTE method; for inhibition at 1 µM: read-out: % inhibition at 1 μM against BRAF V600E; for IC50: read-out: IC50 against BRAF V600E
BRAF V600E, sequence (P15056 whole entry V600E): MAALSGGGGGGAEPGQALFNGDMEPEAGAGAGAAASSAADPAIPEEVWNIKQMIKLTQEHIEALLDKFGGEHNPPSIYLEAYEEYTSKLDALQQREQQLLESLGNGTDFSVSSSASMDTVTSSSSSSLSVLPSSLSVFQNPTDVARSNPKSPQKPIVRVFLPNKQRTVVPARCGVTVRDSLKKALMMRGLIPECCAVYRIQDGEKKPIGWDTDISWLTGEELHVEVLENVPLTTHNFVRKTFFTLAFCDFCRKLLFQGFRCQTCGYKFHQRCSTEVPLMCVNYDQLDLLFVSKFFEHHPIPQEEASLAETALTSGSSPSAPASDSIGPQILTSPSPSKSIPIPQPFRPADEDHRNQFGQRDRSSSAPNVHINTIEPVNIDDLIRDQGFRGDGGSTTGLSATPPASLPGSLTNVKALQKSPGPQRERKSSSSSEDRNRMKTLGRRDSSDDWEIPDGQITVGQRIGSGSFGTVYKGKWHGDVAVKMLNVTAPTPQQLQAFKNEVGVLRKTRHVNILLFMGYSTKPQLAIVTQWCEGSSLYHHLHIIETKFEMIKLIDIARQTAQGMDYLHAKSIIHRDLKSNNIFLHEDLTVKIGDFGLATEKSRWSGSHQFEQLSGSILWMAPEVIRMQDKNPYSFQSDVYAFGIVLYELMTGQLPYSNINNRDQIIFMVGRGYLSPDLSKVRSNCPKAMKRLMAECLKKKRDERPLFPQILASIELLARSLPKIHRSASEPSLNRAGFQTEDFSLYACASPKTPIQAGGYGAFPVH
In short: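 FRET-based Z′-LYTE peptide phosphorylation format in 50 mM HEPES pH 7.5, 0.01% BRIJ-35, 10 mM MgCl2, 1 mM EGTA with ATP. Kinase reaction 60 min at room temperature, then protease development step 60 min at room temperature before fluorescence read. IC50 from compound concentration versus percent inhibition.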

[3] = biological target: KDR (VEGFR2) (Homo sapiens (Human), UniProt P35968); assay: Z′-LYTE kinase inhibition assay (Invitrogen), KDR; format: biochemical; settings: Z′-LYTE method; for inhibition at 1 µM: read-out: % inhibition at 1 μM against KDR; for IC50: read-out: IC50 against KDR
KDR (VEGFR2), sequence (P35968 20-1356): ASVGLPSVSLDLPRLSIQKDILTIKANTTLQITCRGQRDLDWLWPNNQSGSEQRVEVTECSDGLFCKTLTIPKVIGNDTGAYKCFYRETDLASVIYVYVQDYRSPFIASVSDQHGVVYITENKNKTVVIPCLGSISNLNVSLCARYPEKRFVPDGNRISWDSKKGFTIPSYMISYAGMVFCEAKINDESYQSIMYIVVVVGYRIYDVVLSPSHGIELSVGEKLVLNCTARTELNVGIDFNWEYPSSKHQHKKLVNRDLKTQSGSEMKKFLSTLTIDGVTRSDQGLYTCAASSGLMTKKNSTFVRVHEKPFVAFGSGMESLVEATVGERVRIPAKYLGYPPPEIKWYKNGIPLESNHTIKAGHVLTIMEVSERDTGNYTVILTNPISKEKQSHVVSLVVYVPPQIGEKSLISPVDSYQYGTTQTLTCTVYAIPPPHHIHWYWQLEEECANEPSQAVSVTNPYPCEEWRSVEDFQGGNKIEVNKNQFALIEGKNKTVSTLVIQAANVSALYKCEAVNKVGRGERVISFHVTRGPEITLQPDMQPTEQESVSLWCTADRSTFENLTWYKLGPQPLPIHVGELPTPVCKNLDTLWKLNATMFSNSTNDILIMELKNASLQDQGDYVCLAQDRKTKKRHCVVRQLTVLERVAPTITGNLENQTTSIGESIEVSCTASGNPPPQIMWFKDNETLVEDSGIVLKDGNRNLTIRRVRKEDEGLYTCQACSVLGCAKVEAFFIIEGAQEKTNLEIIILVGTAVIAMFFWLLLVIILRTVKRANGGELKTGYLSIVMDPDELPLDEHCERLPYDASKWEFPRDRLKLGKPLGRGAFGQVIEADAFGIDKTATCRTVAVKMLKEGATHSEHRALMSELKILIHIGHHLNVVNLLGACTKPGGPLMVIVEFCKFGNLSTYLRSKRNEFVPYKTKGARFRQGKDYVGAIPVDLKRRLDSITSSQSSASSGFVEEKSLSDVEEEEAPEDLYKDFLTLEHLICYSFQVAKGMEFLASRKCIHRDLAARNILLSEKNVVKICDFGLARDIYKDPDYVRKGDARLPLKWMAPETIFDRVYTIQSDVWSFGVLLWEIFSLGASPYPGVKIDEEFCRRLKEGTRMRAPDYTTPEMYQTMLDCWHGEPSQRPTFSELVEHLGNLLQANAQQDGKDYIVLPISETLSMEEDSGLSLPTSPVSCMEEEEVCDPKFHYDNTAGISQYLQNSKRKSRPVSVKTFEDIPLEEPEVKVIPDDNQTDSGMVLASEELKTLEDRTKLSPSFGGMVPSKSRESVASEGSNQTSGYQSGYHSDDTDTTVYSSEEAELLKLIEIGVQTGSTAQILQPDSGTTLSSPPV
In short: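 Z′-LYTE FRET assay: 10 μL reactions with 0.5–11.7 ng KDR and 2 μM Tyr 01 peptide in 50 mM HEPES pH 7.5, 10 mM MgCl2, 1 mM EGTA, 0.01% BRIJ-35, 1 h at room temperature. Development Reagent B (1:256) added for 60 min, fluorescence read; IC50 from concentration–inhibition curves.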

[4] = system: A375 cells; assay: Inhibition of cancer cell growth, MTT assay, A375; format: cell-based
In short: as §1

[5] = biological target: BRAF (Homo sapiens (Human), UniProt P15056); assay: Z′-LYTE kinase inhibition assay (Invitrogen), BRAF; format: biochemical; settings: 1 μM compound, Z′-LYTE method; for inhibition at 1 µM: read-out: % inhibition at 1 μM against BRAF
BRAF, sequence (P15056 whole entry): as the sequence (P15056 whole entry V600E) above, with E600V counted along it
Procedure: Inhibitory activities Inhibitory activities of compounds against BRAF, and BRAF V600E were measured by Invitrogen using Z′-LYTE® Method as briefly described in the following. 4× Test compounds are dissolved in 1% DMSO. […] ATP solutions are diluted to a 4×ATP working concentration in Kinase Buffer (50 mM HEPES pH 7.5, 0.01% BRIJ-35, 10 mM MgCl2, 1 mM EGTA). Reaction started by 30-second shaking of mixture consisting of 2.5 μL 4× test compound, […] and 2.5 μL 4×ATP Solution on Bar-coded Corning, low volume NBS, black 384-well plate (Corning Cat. #3676). Then the mixture was incubated for 60-minute at room temperature for the kinase reaction, followed by addition of 5 μL of a 1:1024 dilution of development reagent A and 30-second plate shake. The mixture was then incubated for another 60-minute at room temperature for development reaction. Fluorescence was read by plate reader. IC50 was calculated by plotting the concentration of compound vs the percentage of inhibition in treated wells using GraphPad Prism 5.

[6] = Homo sapiens, A549, 72 h exposure
[7] = Homo sapiens, A-375, 72 h exposure

Row | Molecule | IC50 [1, 6] | inhibition at 1 µM ([2]; 1 μM compound) | inhibition at 1 µM ([3]; 1 μM compound) | IC50 [4, 7] | inhibition at 1 µM [5] | IC50 [2] | IC50 [3] | IC50 ([1]; 72 h exposure) | % inhibition at 1 μM against BRAF V600E ([2]; 1 μM compound) | % inhibition at 1 μM against KDR ([3]; 1 μM compound) | IC50 ([4]; 72 h exposure) | % inhibition at 1 μM against BRAF [5]
1 | O=C(Nc1ccc(F)c(C(=O)c2ccc3nccnc3c2)c1Cl)c1ccc(Cl)c(C(F)(F)F)c1 [Compound C112, 4-chloro-N-(2-chloro-4-fluoro-3-(quinoxaline-6-carbonyl)phenyl)-3-(trifluoromethyl)benzamide] | > 5000 nM | < 70% | < 70% | > 5000 nM | < 70% | – | – | – | – | – | – | –
2 | O=C(Nc1ccc(Cl)c(C(F)(F)F)c1)Nc1ccc(F)c(C(=O)c2ccc3nccnc3c2)c1Cl [Compound C008, 1-(4-chloro-3-(trifluoromethyl)phenyl)-3-(2-chloro-4-fluoro-3-(quinoxaline-6-carbonyl)phenyl)urea] | 2000 to 5000 nM | < 70% | < 70% | > 5000 nM | < 70% | – | – | – | – | – | – | –
3 | O=C(Nc1cc(F)cc(C(=O)c2ccc3ncc(N4CCOCC4)nc3c2)c1)Nc1cccc(C(F)(F)F)c1 [Compound C038, 1-(3-fluoro-5-(3-morpholinoquinoxaline-6-carbonyl)phenyl)-3-(3-(trifluoromethyl)phenyl)urea] | < 2000 nM | > 89% | 70 to 89% | < 1000 nM | 70 to 89% | < 100 nM | < 100 nM | – | – | – | – | –
4 | O=C(Nc1cccc(C(F)(F)F)c1)Nc1ccc(F)c(C(=O)c2ccc3ncc(N4CCNCC4)nc3c2)c1 [Compound C085, 1-(4-fluoro-3-(3-(piperazin-1-yl)quinoxaline-6-carbonyl)phenyl)-3-(3-(trifluoromethyl)phenyl)urea] | < 2000 nM | > 89% | > 89% | < 1000 nM | > 89% | – | – | – | – | – | – | –
5 | 1-(fluorophenyl)-3-(2,4,5-trifluoro-3-(quinoxaline-6-carbonyl)phenyl)urea [Compound C005] | – | – | – | – | – | – | – | > 5000 nM | ++ (between 70% and 89% inhibition) | + (less than 70% inhibition) | > 5000 nM | + (less than 70% inhibition)
6 | O=C(Nc1cccc(C(=O)c2ccc3ncc(N4CCCC4)nc3c2)c1)c1cccc(C(F)(F)F)c1 [Compound C122, N-(3-(3-(pyrrolidin-1-yl)quinoxaline-6-carbonyl)phenyl)-3-(trifluoromethyl)benzamide] | 2000 to 5000 nM | > 89% | > 89% | 1000 to 5000 nM | 70 to 89% | < 100 nM | < 100 nM | – | – | – | – | –
7 | O=C(Nc1cncc(F)c1)Nc1ccc(F)c(C(=O)c2ccc3ncc(N4CCOCC4)nc3c2)c1 [Compound C079, 1-(4-fluoro-3-(3-morpholinoquinoxaline-6-carbonyl)phenyl)-3-(5-fluoropyridin-3-yl)urea] | > 5000 nM | > 89% | 70 to 89% | > 5000 nM | > 89% | – | – | – | – | – | – | –
8 | O=C(Nc1cc(F)cc(C(=O)c2ccc3nccnc3c2)c1)Nc1ccc(Cl)c(C(F)(F)F)c1 [Compound C026, 1-(4-chloro-3-(trifluoromethyl)phenyl)-3-(3-fluoro-5-(quinoxaline-6-carbonyl)phenyl)urea] | 2000 to 5000 nM | 70 to 89% | 70 to 89% | 1000 to 5000 nM | < 70% | – | – | – | – | – | – | –
9 | O=C(Nc1ccc(F)c(C(=O)c2ccc3ncc(N4CCOCC4)nc3c2)c1)c1ccc(Cl)c(C(F)(F)F)c1 [Compound C134, 4-chloro-N-(4-fluoro-3-(3-morpholinoquinoxaline-6-carbonyl)phenyl)-3-(trifluoromethyl)benzamide] | 2000 to 5000 nM | 70 to 89% | > 89% | < 1000 nM | < 70% | > 100 nM | < 100 nM | – | – | – | – | –
10 | O=C(Nc1cccc(C(=O)c2ccc3ncc(N4CCCC4)nc3c2)c1)c1cccc(F)c1 [Compound C121, 3-fluoro-N-(3-(3-(pyrrolidin-1-yl)quinoxaline-6-carbonyl)phenyl)benzamide] | < 2000 nM | 70 to 89% | 70 to 89% | < 1000 nM | < 70% | > 100 nM | < 100 nM | – | – | – | – | –
11 | O=C(Nc1cccc(C(=O)c2ccc3nccnc3c2)c1)c1cccc(C(F)(F)F)c1 [Compound C110, N-(3-(quinoxaline-6-carbonyl)phenyl)-3-(trifluoromethyl)benzamide] | 2000 to 5000 nM | 70 to 89% | < 70% | > 5000 nM | 70 to 89% | – | – | – | – | – | – | –
12 | O=C(Nc1ccc(F)c(F)c1)Nc1ccc(F)c(C(=O)c2ccc3ncc(N4CCOCC4)nc3c2)c1 [Compound C046, 1-(3,4-difluorophenyl)-3-(4-fluoro-3-(3-morphlinoquinoxaline-6-carbonyl)phenyl)urea] | < 2000 nM | > 89% | > 89% | < 1000 nM | 70 to 89% | – | – | – | – | – | – | –
13 | O=C(Nc1cc(F)c(F)c(C(=O)c2ccc3nccnc3c2)c1)Nc1ccc(Cl)c(C(F)(F)F)c1 [Compound C023, 1-(4-chloro-3-(trifluoromethyl)phenyl)-3-(3,4-difluoro-5-(quinoxaline-6-carbonyl)phenyl)urea] | < 2000 nM | 70 to 89% | 70 to 89% | < 1000 nM | < 70% | – | – | – | – | – | – | –
14 | O=C(Nc1ccc(F)cc1)Nc1ccc(F)c(C(=O)c2ccc3ncc(N4CCOCC4)nc3c2)c1 [Compound C053, 1-(4-fluoro-3-(3-morpholinoquinoxaline-6-carbonyl)phenyl)-3-(4-fluorophenyl)urea] | < 2000 nM | > 89% | > 89% | < 1000 nM | > 89% | – | < 100 nM | – | – | – | – | –
15 | O=C(Nc1cccc(C(=O)c2ccc3nccnc3c2)c1)Nc1cc(C(F)(F)F)ccc1Cl [Compound C002, 1-(2-chloro-5-(trifluoromethyl)phenyl)-3-(3-(quinoxaline-6-carbonyl)phenyl)urea] | < 2000 nM | > 89% | < 70% | 1000 to 5000 nM | 70 to 89% | – | – | – | – | – | – | –
16 | O=C(Nc1cccc(C(=O)c2ccc3ncc(-c4cn[nH]c4)nc3c2)c1)c1ccc(Cl)c(C(F)(F)F)c1 [Compound C133, N-(3-(3-(1H-pyrazol-4-yl)quinoxaline-6-carbonyl)phenyl)-4-chloro-3-(trifluoromethyl)benzamide] | 2000 to 5000 nM | 70 to 89% | > 89% | < 1000 nM | < 70% | – | – | – | – | – | – | –
17 | O=C(Nc1cccc(C(=O)c2ccc3ncc(-c4cn[nH]c4)nc3c2)c1)Nc1ccc(Cl)c(C(F)(F)F)c1 [Compound C029, 1-(3-(3-(1H-pyrazol-4-yl)quinoxaline-6-carbonyl)phenyl)-3-(4-chloro-3-(trifluoromethyl)phenyl)urea] | 2000 to 5000 nM | > 89% | > 89% | 1000 to 5000 nM | 70 to 89% | < 100 nM | < 100 nM | – | – | – | – | –
18 | O=C(Nc1cc(F)c(F)c(C(=O)c2ccc3nccnc3c2)c1F)c1cccc(F)c1 [Compound C108, 3-fluoro-N-(2,4,5-trifluoro-3-(quinoxaline-6-carbonyl)phenyl)benzamide] | 2000 to 5000 nM | 70 to 89% | < 70% | > 5000 nM | < 70% | – | – | – | – | – | – | –
19 | O=C(Nc1cccc(C(=O)c2ccc3ncc(N4CCOCC4)nc3c2)c1)Nc1cccc(C(F)(F)F)c1 [Compound C017, 1-(3-(3-morpholinoquinoxaline-6-carbonyl)phenyl)-3-(3-(trifluoromethyl)phenyl)urea] | < 2000 nM | > 89% | > 89% | < 1000 nM | 70 to 89% | < 100 nM | < 100 nM | – | – | – | – | –

Source: patent US10759766B2, “Certain chemical entities, compositions, and methods” (NeuPharma, Inc., priority 2011, dated 2020)
